The target of series [1] is T1, α1B-AR (Homo sapiens, UniProt P35368).
T1 construct: expressed in transfected cells; host or cells: Rat-1 fibroblast cells
T1 sequence (P35368 1-520): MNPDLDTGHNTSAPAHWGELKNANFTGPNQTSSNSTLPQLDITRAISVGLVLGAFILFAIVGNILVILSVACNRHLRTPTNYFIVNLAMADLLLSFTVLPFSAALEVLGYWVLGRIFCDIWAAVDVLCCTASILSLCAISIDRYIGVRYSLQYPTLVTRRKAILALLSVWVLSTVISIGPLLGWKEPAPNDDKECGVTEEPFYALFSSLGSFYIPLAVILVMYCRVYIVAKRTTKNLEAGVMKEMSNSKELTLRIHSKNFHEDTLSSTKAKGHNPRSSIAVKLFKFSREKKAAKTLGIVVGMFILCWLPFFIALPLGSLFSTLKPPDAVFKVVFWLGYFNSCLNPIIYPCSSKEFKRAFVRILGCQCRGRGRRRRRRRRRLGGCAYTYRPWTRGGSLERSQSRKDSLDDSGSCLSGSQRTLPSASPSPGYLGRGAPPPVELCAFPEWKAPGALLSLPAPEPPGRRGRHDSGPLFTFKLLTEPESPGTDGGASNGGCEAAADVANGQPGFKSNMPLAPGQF
Put plainly: Competition binding with [125I]HEAT at α1B-AR. As for the experimental part: (§1) Competition binding assays: These compounds were characterized for their ligand binding properties at the α1-AR subtypes. The binding affinities of Compounds 1-10 were determined in a series of competition-binding experiments with the α1-AR-selective antagonist [^125I]HEAT as the radioligand. Assays were performed in duplicate in HEM buffer, in a total assay volume of 1000 μl. Radioligand binding assays are composed of 5 ug of membranes, harvested from Rat-1 fibroblast cells expressing only one of the alpha1-AR subtypes, HEM buffer containing GTP (composed of 20 mM HEPES, pH 7.4, 1.4 mM EGTA, 12.5 mM MgCl2, pH to 7.4), 0.5 mM GTP, 35-80 pM^125I-HEAT, and various doses of norepinephrine or epinephrine and incubated with shaking at 25° C. for 1-2 hours. The above conditions will convert all the conformations of the receptor into a single low affinity site. To show both high and low affinity sites of the receptor (typically seen with GPCR agonists), the GTP is removed from the binding buffer. Nonspecific binding was determined experimentally in the presence of 10^−4 M phentolamine. Unbound radioactivity was separated from membrane-bound radioactivity by filtration through Whatman GF/C filter paper. […] Bound radioactivity remaining on the filters was counted on an ICN gamma counter operating at 79.8% efficiency. Data are analyzed using Graphpad Prism.

For series [2], the target named is T2, α1D-AR (Homo sapiens, UniProt P25100).
T2 construct: expressed in transfected cells; host or cells: Rat-1 fibroblast cells
T2 sequence (P25100 1-572): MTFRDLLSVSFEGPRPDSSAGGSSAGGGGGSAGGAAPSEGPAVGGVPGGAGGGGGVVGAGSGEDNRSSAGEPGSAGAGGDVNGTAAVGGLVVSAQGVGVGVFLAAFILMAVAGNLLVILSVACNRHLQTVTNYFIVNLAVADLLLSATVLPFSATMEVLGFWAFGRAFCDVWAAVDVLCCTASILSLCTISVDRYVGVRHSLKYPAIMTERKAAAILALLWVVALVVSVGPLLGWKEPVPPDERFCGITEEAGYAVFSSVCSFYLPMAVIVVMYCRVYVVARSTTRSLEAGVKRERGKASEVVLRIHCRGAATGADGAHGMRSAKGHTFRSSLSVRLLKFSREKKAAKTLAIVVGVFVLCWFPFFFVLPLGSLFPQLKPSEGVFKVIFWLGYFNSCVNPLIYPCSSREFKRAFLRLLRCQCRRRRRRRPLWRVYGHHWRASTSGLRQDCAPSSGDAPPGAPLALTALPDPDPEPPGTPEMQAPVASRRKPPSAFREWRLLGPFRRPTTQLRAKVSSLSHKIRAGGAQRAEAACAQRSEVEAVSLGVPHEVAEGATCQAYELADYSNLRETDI
Put plainly: Competition binding with [125I]HEAT at α1D-AR. The method, then: as §1

Series [3] concerns the target T2, α1D-AR. Put plainly: Effect of compound on binding affinity of norepinephrine at α1D-AR. Particulars: 10^−5M. The method, then:
as §1, with “Prism. […]” for “Prism.”

Series [4] deals with 3×TG Alzheimer's Disease (AD) mouse model. Put plainly: Smart Cage locomotor activity in AD mice. The format is in vivo. The settings on record: 48 hours.
A short description of series [5]: Pharmacokinetics in mice. The format is in vivo, mouse. The settings on record: as determined by PK. The method, then:
Pharmacokinetics: Mice are dosed for each identified candidate compound via oral gavage and accessed for a three-arm PK study in C57BL/6 mice at 0, 15 min, 30 min, 1 hr, 3 hr, 6 hr, 12 hr, 24 hr, and 48 hrs. Three groups of […] (N=3 per time point) are administered a PO dose of the identified compound of interest and following completion of the PK study, terminal blood plasma samples and brain tissue samples are collected at the time points to determine in vivo BBB penetrance. Parameters tested can include absorption, bioavailability, volume distribution, metabolism, Cmax, tmax, concentration, elimination rate and half-life, and clearance.

In series [6] the target is T3, α1A-AR (Homo sapiens, UniProt P35348).
T3 sequence (P35348 1-466): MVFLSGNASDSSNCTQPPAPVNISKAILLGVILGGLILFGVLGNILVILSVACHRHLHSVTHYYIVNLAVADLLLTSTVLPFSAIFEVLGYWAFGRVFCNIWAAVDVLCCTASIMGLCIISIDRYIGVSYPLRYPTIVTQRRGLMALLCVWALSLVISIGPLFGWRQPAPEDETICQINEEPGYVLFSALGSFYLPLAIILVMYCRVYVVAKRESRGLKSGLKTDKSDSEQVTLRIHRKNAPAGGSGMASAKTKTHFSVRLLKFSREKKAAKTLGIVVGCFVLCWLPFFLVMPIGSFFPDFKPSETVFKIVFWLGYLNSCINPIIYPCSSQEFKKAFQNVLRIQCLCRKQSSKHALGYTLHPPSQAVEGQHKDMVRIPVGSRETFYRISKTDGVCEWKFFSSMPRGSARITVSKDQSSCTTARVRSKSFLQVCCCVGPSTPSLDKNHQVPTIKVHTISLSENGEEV
Put plainly: Effect of compound on binding affinity of norepinephrine, epinephrine or other ligands at α1A-AR. Further details: expressed in transfected cells; host or cells: Rat-1 fibroblast cells.

Entries after “also recorded” stand apart in the source; their conditions may differ.

Take `CC(C)Cc1c(OCC2=NCCN2)cccc1N(C)S(C)(=O)=O` [Compound 3, N-[3-(4,5-Dihydro-1H-imidazol-2-ylmethoxy)-2-isobutyl-phenyl]-N-methyl-methanesulfonamide]: the “specific binding at the α1B-AR” value in series [1] was “little, if any, specific binding; also recorded: no affinity”. The “specific binding at the α1D-AR” value in series [2] was “little, if any, specific binding; also recorded: no affinity”. For the same molecule, in series [3], the “effect on affinity of norepinephrine at the α1D-AR” value is recorded as “no effect; also recorded: does not increase the affinity of norepinephrine”. Further, in series [4], the “locomotion assessed by amount of active time” value is “little effect on locomotion” and the “locomotion assessed by velocity” value is “little effect on locomotion”. Moreover, the CMax time point result in series [5] is recorded as “approx. 3 hr”. The “effect on binding of phentolamine at the α1A-AR” value in series [6] (10^−5M) is “no effect; also recorded: does not change the affinity”. Moreover, the “effect on binding of cirazoline at the α1A-AR” value in series [6] (10^−5M and 10^−7M) was “does not affect; also recorded: no effect”.

The values are drawn from patent US12384751B2, “Allosteric activators of the ALPHA1A-adrenergic receptor” (The Cleveland Clinic Foundation, priority 2019, dated 2025).
